Test results reported in patent US6833378B2, “Corticotropin releasing factor antagonists” (Pfizer Inc, priority 2000, dated 2004).
Where a name gives a salt, the structure may show the parent alone.

Row | melting point | Compound
1 | 85 to 88 °C | CCC(CC)Oc1cc(C)nc(Nc2c(C)cc(C)cc2C)c1CN(C)C.Cl
2 | 185 to 187 °C | CCC(CC)Oc1cc(C)nc(Nc2c(C)cc(C)cc2C)c1C(N)=O (as salt: HCl) [Example 78, 4-(1-Ethyl-propoxy)-6-methyl-2-(2,4,6-trimethyl-phenylamino)-nicotinamide]
3 | 197 to 200 °C | CCC(CC)Oc1cc(C)nc(Nc2c(C)cc(C)cc2C)c1C(=O)N(C)C (as salt: HCl) [Example 80, 4-(1-Ethyl-propoxy)-6,N,N-trimethyl-2-(2,4,6-trimethyl-phenylamino)-nicotinamide]
4 | 126.5 to 130.5 °C | CCC(COC)Nc1cc(C)nc(Oc2c(C=O)cccc2OC)c1[N+](=O)[O-] (centres unmarked) [Example 1, 3-Methoxy-2-[4-(1-methoxymethyl-propylamino)-6-methyl-3-nitro-pyridin-2-yloxy]-benzaldehyde]
5 | 126.8 to 129.5 °C | CCC(COC)Nc1cc(C)nc(Oc2c(OC)cc(OC)cc2OC)c1[N+](=O)[O-] (centres unmarked) [Example 1, (1-Methoxymethyl-propyl)-[6-methyl-3-nitro-2-(2,4,6-trimethoxy-phenoxy)-pyridin-4-yl]-amine]
6 | 75 to 76 °C | CCC(COC)Nc1cc(C)nc(Oc2ccc(OC(F)(F)F)cc2)c1[N+](=O)[O-] (centres unmarked) [Example 1, (1-Methoxymethyl-propyl)-[6-methyl-3-nitro-2-(4-trifluoromethoxy-phenoxy)-pyridin-4-yl]-amine]
7 | 170 to 172 °C | CCC(CC)Nc1cc(C)nc(Oc2c(C)cc(C)cc2C)c1NC(=O)C(C)Cl (centres unmarked) [Example 2, 2-Chloro-N-[4-(1-ethyl-propylamino)-6-methyl-2-(2,4,6-trimethyl-phenoxy)-pyridin-3-yl]-propionamide]
8 | 183 to 185 °C | CCC(CC)Nc1cc(C)nc(Oc2c(C)cc(C)cc2C)c1NC(=O)CCCl [Example 2, 3-Chloro-N-[4-(1-ethyl-propylamino)-6-methyl-2-(2,4,6-trimethyl-phenoxy)-pyridin-3-yl]-propionamide]
9 | 144 to 145.5 °C | CC[C@H]1COC(=O)N1c1cc(C)nc(Oc2c(C)cc(Cl)cc2C)c1C(=O)OC [Example 18, 2-(4-Chloro-2,6-dimethyl-phenoxy)-4-(S)-(4-ethyl-2-oxo-oxazolidin-3-yl)-6-methyl-nicotinic acid methyl ester]
10 | 180 to 182 °C | CCC(Nc1cc(C)nc(Oc2c(C)cc(Cl)cc2C)c1CO)C(C)O (centres unmarked) [Example 25, 3-[2-(4-Chloro-2,6-dimethyl-phenoxy)-3-hydroxymethyl-6-methyl-pyridin-4-ylamino]-pentan-2ol]
11 | 145 to 148 °C | CCC(O)C(CC)Nc1cc(C)nc(Oc2c(C)cc(Cl)cc2C)c1CO (centres unmarked) [Example 26, 4-[2-(4-Chloro-2,6-dimethyl-phenoxy)-3-hydroxymethyl-6-methyl-pyridin-4-ylamino]-hexan-3-ol]
12 | 131 to 133 °C | C#CC(CC)Nc1cc(C)nc(Oc2c(C)cc(C)cc2C)c1C(=O)O (centres unmarked) [Example 27, 4-(1-Ethyl-prop-2-ynylamino)-6-methyl-2-(2,4,6-trimethyl-phenoxy)-nicotinic acid]
13 | 106 to 109 °C | CCC(CC)Oc1cc(C)nc(Oc2c(C)cc(C)cc2C)c1[N+](=O)[O-] [Example 60, 4-(1-Ethyl-propoxy)-6-methyl-3-nitro-2-(2,4,6-trimethyl-phenoxy)-pyridine]
14 | 120 to 122 °C | CCC(CC)Oc1cc(C)nc(Nc2c(C)cc(C)cc2C)c1C(=O)n1ccnc1 [Example 70, [4-(1-Ethyl-propoxy)-6-methyl-2-(2,4,6-trimethyl-phenylamino)-pyridin-3-yl]-imidazol-1-yl-methanone]
15 | 96 to 98 °C | CCC(CC)Oc1cc(C)nc(Nc2c(C)cc(C)cc2C)c1CC(C(=O)OC)C(=O)OC [Example 72, 2-[4-(1-Ethyl-propoxy)-6-methyl-2-(2,4,6-trimethyl-phenylamino)-pyridin-3-ylmethyl]-malonic acid dimethyl ester]
16 | 142 to 144 °C | CCC(CC)Oc1cc(C)nc(Nc2c(C)cc(C)cc2C)c1CNC(=O)CCl [Example 75, 2-Chloro-N-[4-(1-ethyl-propoxy)-6-methyl-2-(2,4,6-trimethyl-phenylamino)-pyridin-3-ylmethyl]-acetamide]

Row | melting point | Compound
17 | 55 to 57 °C | CCOC(=S)SCc1c(OC(CC)CC)cc(C)nc1Nc1c(C)cc(C)cc1C [Example 77, Dithiocarbonic acid O-ethyl ester S-[4-(1-ethyl-propoxy)-6-methyl-2-(2,4,6-trimethyl-phenylamino)-pyridin-3-ylmethyl] ester]
18 | 98 to 100 °C | CCC(CC)Oc1cc(C)nc(Nc2c(C)cc(C)cc2C)c1 [Example 90, [4-(1-Ethyl-propoxy)-6-methyl-pyridin-2-yl]-(2,4,6-trimethyl-phenyl)-amine]
19 | 134 to 139 °C | Cc1cc(C)c(Oc2nc(C)cc(C(O)C(F)(F)F)c2C)c(C)c1 (centres unmarked) [Example 99, 1-[3,6-Dimethyl-2-(2,4,6-trimethyl-phenoxy)-pyridin-4-yl]-2,2,2-trifluoro-ethanol]
20 | 204 to 206 °C | CCC(CC)Nc1cc(C)nc(Nc2c(C)cc(C)cc2C)c1C(N)=O [Example 119, 4-(1-Ethyl-propylamino)-6-methyl-2-(2,4,6-trimethyl-phenylamino)-nicotinamide]
21 | 174 to 176 °C | CCC(CC)Oc1nc(C)nc(Nc2c(C)cc(C)cc2C)c1C(N)=O [Example 120, 4-(1-Ethyl-propoxy)-2-methyl-6-(2,4,6-trimethyl-phenylamino)-pyrimidine-5-carboxylic acid amide]
22 | 79 to 82 °C | CCC(CC)Oc1cc(C)nc(Nc2c(C)cc(C)cc2C)c1NC(=O)CCl [Example 124, 2-Chloro-N-[4-(1-ethyl-propoxy)-6-methyl-2-(2,4,6-trimethyl-phenylamino)-pyridin-3-yl]-acetamide]
23 | 136 to 138 °C | CCC(CC)Nc1cc(C)nc(Nc2c(C)cc(C)cc2C)c1CC(C(=O)OC)C(=O)OC [Example 129, 2-[4-(1-Ethyl-propylamino)-6-methyl-2-(2,4,6-trimethyl-phenylamino)-pyridin-3-ylmethyl]-malonic acid dimethyl ester]
24 | 117 to 119 °C | CCC(CC)Nc1cc(C)nc(Oc2c(C)cc(C)cc2C)c1CN [Example 135, [3-Aminomethyl-6-methyl-2-(2,4,6-trimethyl-phenoxy)-pyridin4-yl]-(1-ethyl-propyl)-amine]
25 | 118 to 120 °C | CCC(CC)Oc1nc(C)nc(Nc2c(C)cc(C)cc2C)c1C(=O)O [Example 160, 4-(1-Ethyl-propoxy)-2-methyl-6-(2,4,6-trimethyl-phenylamino)-pyrimidine-5-carboxylic acid]
26 | 121 to 123 °C | CCC(CC)Oc1nc(C)nc(Nc2c(C)cc(C)cc2C)c1CO [Example 161, [4-(1-Ethyl-propoxy)-2-methyl-6-(2,4,6-trimethyl-phenylamino)-pyrimidin-5-yl]-methanol]
27 | 184 to 186 °C | CCC(CC)Oc1cc(C)nc2c1[nH]c(=O)n2-c1c(C)cc(C)cc1C [Example 166, 7-(1-Ethyl-propoxy)-5-methyl-3-(2,4,6-trimethyl-phenyl)-1,3-dihydro-imidazo[4,5-b]pyridin-2-one]
28 | 151 to 153 °C | CCC(CC)Oc1cc(C)nc2c1n(C)c(=O)n2-c1c(C)cc(C)cc1C [Example 167, 7-(1-Ethyl-propoxy)-1,5-dimethyl-3-(2,4,6-trimethyl-phenyl)-1,3-dihydro-imidazo[4,5-b]pyridin-2-one]
29 | 158 to 160 °C | CCC(CC)Nc1cc(C)nc2c1nc(N)n2-c1c(C)cc(C)cc1C [Example 170, N7-(1-Ethyl-propyl)-5-methyl-3-(2,4,6-trimethyl-phenyl)-3H-imidazo[4,5-b]pyridine-2,7-diamine]
30 | 184 °C | CCC(CC)Nc1cc(C)nc(Oc2c(C)cc(OC)cc2C)c1C(N)=O [Example 262, 4-(1-Ethyl-propylamino)-2-(4-methoxy-2,6-dimethyl-phenoxy)-6-methyl-nicotinamide]
31 | 122.6 °C | CCC(Nc1cc(C)nc(Oc2c(C)cc(OC)cc2C)c1C(=O)NC)C(C)OC (centres unmarked) [Example 284, 4-(1-Ethyl-2-methoxy-propylamino)-2-(4-methoxy-2,6-dimethyl-phenoxy)-6,N-dimethyl-nicotinamide]
32 | 164.3 °C | CCC(CC)Nc1cc(C)nc(Oc2c(C)cc(C)nc2C)c1C(N)=O [Example 287, 4-(1-Ethyl-propylamino)-6-methyl-2-(2,4,6-trimethyl-pyridin-3-yloxy)-nicotinamide]
